The source of these data is patent US9468627B2, “Slow-release formulations of 5-hydroxytryptophan as an adjunct to pro-serotonergic therapies” (Duke University, priority 2010, dated 2016).

The term Tmax denotes the time from dosing to the highest level.

A short description of data set [1]: Side-effect and toxicity observation (body weight, drinking, diarrhea, 5-HT syndrome-like behaviors).
Procedure: Tph2 R439H mice (˜25 g) were treated for >3 wks with a saturating dose of FLX (155 mg/L drinking water, ˜20 mg/kg/day). Thereafter Alzet 2001 minipumps (1 μl delivered/hr) containing a 5-HTP solution (100 mg/ml, ˜100 mg/kg/day) or only vehicle was implanted using isoflurane anesthesia, allowing for swift awakening, and the mice monitored for signs of 5-HT syndrome hourly for 8 hrs and at 24 hrs. Splaying (0=absent, 1=present, 2=severe), head twitch (#/min) and signs of hyperventilation (0=absent, 1=present, 2=severe) was scored. Body weights—a general index of toxicity—were followed for 2 days prior to and 5 days after pump implantation.
METHODS: Mice on >2 w FLX (155 mg/L water, ˜20 mg/kg/d) were implanted with Alzet 2001 minipumps with vehicle (50% DMSO) or 100 mg/ml 5-HTP yielding a hourly (daily) dose of ˜4.2(100 mg)/kg for a ˜25 g mouse. Side-effect parameters were assessed between 30 min and 8 h following pump implantation under brief isoflurane anesthesia (day 1) and then daily (day 2-4). […] Diarrhea: Mice where placed individually in a cage with filter paper and the diarrhea level scored, 0-3. Tremor and splaying: Scored in home cage from 5 min videos. Temperature: Recorded by digital rectal temperature probe in lightly restrained mice. […] Statistics: Genotypes were analyses separately, with 2way RM-ANOVA or t-test as appropriate, and in the former case followed by Bonferroni post-hoc test.
Side-effects were assessed after the AM dose, day 1-4. Diarrhea: Mice were placed individually in a cage with filter paper and the diarrhea level scored, 0-3, 0-15 min after injection. Tremor, splaying and head-twitch: Scored in home cage from 5 min videos, 25-30 min after injection. Temperature: Recorded by digital rectal temperature probe in lightly restrained mice 30 min after injection. […] Statistics: Genotypes were analyzed separately, with 2way RM-ANOVA or t-test where appropriate, and in the former case followed by Bonferroni post-hoc test.
METHODS: 5-HTP (2 mg/L) was dissolved in (1 mg/L) saccharin-H2O, administered in blackened bottles and changed twice weekly. […] Body weights and drinking per cage was followed throughout and 5-HTP consumed estimated here from.
In data set [2] the test system is extracellular serotonin (5-HTExt). The experiment in a line: 5-HT microdialysis (5-HTExt). In kind it is in vivo, mice. Here is the method: Mice were anesthetized by ketamine/xylazine (100 and 10 mg kg^−1, respectively, in saline, i.p) and a guide cannula (CMA7, CMA Microdialysis, Chelmsford, Mass., USA) was stereotactically implanted into the frontal cortex (AP: 2.3 mm, ML: 0.3 mm, DV: 0.7 mm), hippocampus (AP: −3.3 mm, ML: 3.0 mm, DV: 1.5 mm) or lateral ventricle (AP: 0.3 mm; ML: 0.9 mm; DV: 2.0 mm) according to the atlas by Franklin and Paxinos (see, e.g., Franklin, K. and Paxinos, G. The Mouse Brain in Stereotaxic Coordinates. Academic Press: San Diego, 1997) and fixed in place with two anchor screws (CMA) and carboxylate dental cement (CMA). Operated mice were singly housed, treated with antibiotics (1.2 mg sulfamethoxazole ml^−1 and 0.24 mg trimethoprim ml^−1) in the drinking water and allowed to recover 48-96 h post-surgery.
The microdialysis probe was inserted into the guide cannula approximately 16 h before the start of sample collection to allow for the stabilization of 5-HTExt levels. […] Dialysates were analyzed off-line by high-performance liquid chromatography-electrochemical detection (HPLC-EC) for 5-HT, 5-HIAA, 3,4-dihydroxyphenylacetic acid and homovanillic acid, or by the SymDAQ HPLC-tandem-mass spectrometry technology for simultaneous determination of monoamines and amino acids.
METHODS: 5-HT Microdialysis 5-HTP SR. […] 5-HTExt in dialysates was determined by HPLC-EC. […]

For data set [3] the following is noted: immediate-release oral 5-HTP; cited from earlier work.
For data set [4] the following is noted: cited from earlier work.
Data set [5] can be described thus: HPLC pilot stability of 5-HTP in water. In kind it is physicochemical. Particulars: H2O at RT, HPLC pilot experiments.
The conditions of data set [6]: Shindo et al. 1977; cited from earlier work.

Entries after “also recorded” stand apart in the source; their conditions may differ.

In the case of `CNCCC(Oc1ccc(C(F)(F)F)cc1)c1ccccc1` (stereo not shown) [FLX, fluoxetine], the “effect of FLX on 5-HTP-induced diarrhea (peri-rectal fecal smearing)” value in data set [1] (FLX ≈18 mg/kg/day, 5-HTP bolus 80 mg/kg i.p., not rigorously tested) is given as “seems to decrease diarrhea induced by 5-HTP; also recorded: appeared to lessen 5-HTP-induced diarrhea”. Besides, the “5-HTExt response to chronic FLX” value in data set [2] (wild-type mice, FLX ≈18 mg/kg/day) is listed as “robust increase”.
Take `CCCN(CCC)C1CCc2cccc(O)c2C1` (stereo not shown) [8-OH-DPAT]: in data set [2] (8-OH-DPAT 1 mg/kg i.p.), the “decrease of 5-HTExt” value was “approximately 50%”.
For the molecule `N[C@@H](Cc1c[nH]c2ccc(O)cc12)C(=O)O` [5-HTP, 5-hydroxytryptophan], the drinking result in data set [1] (5-HTP 2 mg/ml and 4 mg/ml in drinking water) is recorded as “Decreased drinking”; in data set [1] (higher 5-HTP concentrations in drinking water, in pilots), “inhibited drinking”. In addition, the body weight result in data set [1] (5-HTP 4 mg/ml in drinking water) was “Body weight decrease”. Moreover, the 5-HT syndrome-like behavior result in data set [1] (acute 5-HTP bolus 80 mg/kg i.p., add-on to existing FLX ≈18 mg/kg/day) is reported as “resulted in 5-HT syndrome-like behavior; also recorded: causes 5-HT syndrome; also recorded: Serotonin syndrome-like behavior was observed”. For the same molecule, the “diarrhea, malaise, gastrointestinal side effects” value in data set [1] (bolus injection 5-HTP 120 mg/kg i.p.) was “caused gastrointestinal side effects; also recorded: caused diarrhea and obvious malaise”; in data set [1] (continuous 5-HTP in drinking water 4 mg/ml) it was “No diarrhea and no obvious malaise; also recorded: did not result in gastrointestinal side effects”. The “toxicity (weights, head twitches, diarrhea)” value in data set [1] (oral 5-HTP ≈200 mg/kg/day, no carbidopa, add-on to existing fluoxetine ≈18 mg/kg/day) was “No indication of toxicity; also recorded: not toxic and does not result in side effects”. Also, the T1/2 in data set [3] is 2 to 3 h. The Tmax in data set [3] is 1 to 2 h. Moreover, the “antidepressant effect (HAMD) at endpoint” value in data set [4] (Alino et al.: 30 inpatients, nialamid 300 mg + 5-HTP 300 mg, two weeks, double-blind) is on record as “significantly better than nialamide alone”. Also, in data set [4] (Nardini et al.: 26 inpatients, clomipramine 50 mg + 5-HTP 300 mg, four weeks, double-blind), the “antidepressant effect (HAMD) versus clomipramine + placebo” value is listed as 5-HTP enhanced clomipramines effect. In data set [4] (van Hiele: 99 chronic treatment resistant out-patients, mostly on TCAs, add-on 5-HTP ~200 mg + carbidopa, open label), the “patients going into remission” value is “Forty-three”. In addition, the side effects result in data set [4] (van Hiele: add-on 5-HTP ~200 mg + carbidopa, severity greatly decreased with enteric coated capsules) is “nausea, vomiting and diarrhea”. The patients improved entry in data set [4] (van Praag: 7 chronic treatment resistant out-patients, clomipramine 50 mg + 5-HTP ~2-400 mg + PDI MK 486) is recorded as “Four”. In data set [5], the “stability in H2O” value is given as “stable for weeks”. Also, in data set [6], the “first-pass metabolism in the intestine” value was approximately 50%.
